Data published in article PMC6689897, “Drugging an undruggable pocket on KRAS” (Proceedings of the National Academy of Sciences of the …, 2019).

What was measured:
NCI-H358 cells = test: RAS GTP detection (Ras G-LISA activation assay); type: cell-based, human; conditions: for steady-state RAS GTP levels: high growth factor conditions; for formation of GTP-loaded KRAS / RAS GTP levels: starved 24 h low serum, 2 h compound, then EGF
Description: When we incubated NCI-H358 cells with 50 µM 1 for 1 h, as previously observed, no change in GTP-KRAS was observed. In contrast, 20 µM ARS-1620 caused an 80% reduction of the GTP-bound RAS pool. When the 2 compounds were combined, only a 30% reduction of GTP-RAS was observed, which is in line with inhibiting the binding of GAPs with KRAS (Fig. 6D). […]
332 RAS GTP detection (Ras G-LISA Activation assay):
333 Ras-GTP levels were analyzed using a Ras G-LISA assay kit (Cytoskeleton Inc.,
335 600.000 cells were seeded in 6 wells and grown to 70% confluence. Cells were washed
337 provided protease inhibitor cocktail. Lysates were quickly frozen in liquid nitrogen
338 and stored at -80°C until further usage. After normalizing protein concentration, 40µg
339 of protein was added in duplicates to wells of the Ras G-LISA plate coated with Ras
340 GTP-binding protein and incubated at 4°C for 30 minutes while shaking at 400rpm.
341 After washing, antigen presenting buffer was added for 2 minutes. To measure bound
342 Ras GTP levels, wells were subsequently incubated with an anti-Ras primary antibody
343 (1:50) followed by a HRP-labeled secondary antibody (1:500) and finally by adding a
344 HRP detection reagent. Absorbance was measured by 490nm using an EnSpire
345 Multimode Reader (Perkin Elmer). Background was determined by a negative control
346 well and subtracted from all samples. […]

GDP-KRASG12C::SOS1 = GDP-KRASG12C::SOS1 (Homo sapiens, UniProt P01116, C118S/C51S/C80L/G12C); test: Alpha Screen PPI assay; type: biochemical; conditions: for IC50: Alpha Screen, duplicate
Description: (§1) 221 Measurements of various protein–protein interactions were performed using the Alpha
(§2) 222 Screen technology developed by Perkin Elmer. Recombinant RAS proteins (H-, N-, K-
(§3) 223 RAS variants; all KRAS variants are based on KRAS isoform 4B (uniprot id P01116-2);
(§4) 224 KRAS (G12D) 1-169, N-terminal 6His-tag, C-terminal avi-tag was from Xtal
(§5) 225 BioStructures, Inc., KRAS (G12C) 1-169, C-terminal avi-tag, biotinylated, mutations:
(§6) 226 C51S, C80L, C118S, NRAS(wt) 1-172, C-terminal avi-tag, biotinylated; HRAS(wt) 1-
(§7) 227 166, C-terminal avi-tag, biotinylated). Biotinylation was performed in vitro with
(§8) 228 recombinant BirA biotin-protein ligase as recommended by the manufacturer (Avidity
(§9) 229 LLC, Aurora, Colorado, USA). Interacting proteins such as SOS1 (564-1049, N-terminal
(§10) 230 GST-tag, TEV cleavage site), cRaf (1-303, N-terminal GST-tag, TEV cleavage site) and
(§11) 231 PI3KA- RBD (160-317, N-term-HIS_GST-tag) were expressed as glutathione S
(§12) 232 transferase (GST) fusions. Accordingly, the Alpha Screen beads were glutathione coated
(§13) 233 Alpha Lisa acceptor beads (Perkin Elmer AL 109 R) and Alpha Screen Streptavidin
(§14) 234 conjugated donor beads (Perkin Elmer 6760002L). Nucleotides were purchased from
(§15) 236 interaction assays were carried out in PBS, containing 0.1% bovine serum albumin,
(§16) 237 0,05% Tween-20 and 10 µM of the corresponding nucleotide. Assays were carried out in
(§17) 238 white ProxiPlate-384 Plus plates (Perkin Elmer #6008280) in a final volume of 20 µL. In
(§18) 239 brief, biotinylated RAS proteins (10 nM final concentration) and GST-SOS1, GST-PI3K
(§19) 240 or GST-CRAF (10 nM final) were mixed with glutathione acceptor beads (5 µg/mL final
(§20) 241 concentration) in buffer, containing the corresponding nucleotides (GDP or GTP for
(§21) 242 assays containing SOS1, only GTP for interaction assays containing PI3K or CRAF) and
(§22) 243 were incubated for 30 min at room temperature. After addition of streptavidin donor
(§23) 244 beads (5 µg/mL final concentration) under green light, the mixture was further incubated
(§24) 245 for 60 min in the dark at room temperature. Single oxygen induced fluorescence was
(§25) 246 measured at an Enspire multimode plate reader (Perkin Elmer) according to the
(§26) 247 manufacturer’s recommendations. […]

GTP-KRASG12C::CRAF = GTP-KRASG12C::CRAF (Homo sapiens, UniProt P01116, C118S/C51S/C80L/G12C); test: Alpha Screen PPI assay; type: biochemical; conditions: duplicate
Description: as §1, §2, §3, §4, §5, §6, §7, §8, §9, §10, §11, §12, §13, §14, §15, §16, §17, §18, §19, §20, §21, §22, §23, §24, §25, §26

GTP-KRASG12C::SOS1 = GTP-KRASG12C::SOS1 (Homo sapiens, UniProt P01116, C118S/C51S/C80L/G12C); test: Alpha Screen PPI assay; type: biochemical; conditions: duplicate
Description: as §1, §2, §3, §4, §5, §6, §7, §8, §9, §10, §11, §12, §13, §14, §15, §16, §17, §18, §19, §20, §21, §22, §23, §24, §25, §26

GDP-KRASG12D::SOS1 = biological target: T1, GDP-KRASG12D::SOS1 (Homo sapiens, UniProt P01116, G12D); test: Alpha Screen PPI assay; type: biochemical; conditions: for IC50: Alpha Screen, duplicate
T1 construct: KRAS (G12D) 1-169, N-terminal 6His-tag, C-terminal avi-tag was from Xtal; 6His-tag (N); purchased Xtal BioStructures, Inc
Description: as §1, §2, §3, §4, §5, §6, §7, §8, §9, §10, §11, §12, §13, §14, §15, §16, §17, §18, §19, §20, §21, §22, §23, §24, §25, §26

GTP-KRASG12C::PI3Kα = GTP-KRASG12C::PI3Kα (Homo sapiens, UniProt P01116, C118S/C51S/C80L/G12C); test: Alpha Screen PPI assay; type: biochemical; conditions: duplicate, read-out: IC50 GTP-KRASG12C::PI3K
Description: as §1, §2, §3, §4, §5, §6, §7, §8, §9, §10, §11, §12, §13, §14, §15, §16, §17, §18, §19, §20, §21, §22, §23, §24, §25, §26

Structure (SMILES): C=CC(=O)N1CCN(c2ncnc3c(F)c(-c4c(O)cccc4F)c(Cl)cc23)CC1 [ARS-1620, reference compound]
- reduction of the GTP-bound RAS pool (NCI-H358 cells; 20 µM ARS-1620): 80%
- steady-state RAS GTP levels (NCI-H358 cells): strongly reduced
- formation of GTP-loaded KRAS / RAS GTP levels (NCI-H358 cells): reduced the RAS GTP levels even below the DMSO control
- activity on the GDP-dependent KRAS^G12C::SOS1 interaction (GDP-KRASG12C::SOS1): displayed activity
- IC50 (GDP-KRASG12C::SOS1): 590 nM
- IC50 (GTP-KRASG12C::CRAF): > 10000 nM
- IC50 (GTP-KRASG12C::SOS1): > 10000 nM
- inhibition of GDP-dependent interaction with G12D instead of G12C (GDP-KRASG12D::SOS1): lost the ability to inhibit
- IC50 (GDP-KRASG12D::SOS1): > 10000 nM
- IC50 (GTP-KRASG12C::PI3Kα): > 10000 nM

Structure (SMILES): Cn1cnc(Cn2ccc3ccc(CNCc4[nH]c5ccccc5c4[C@H]4NC(=O)c5ccc(O)cc54)cc32)c1 [Compound 1]
- reduction of GTP-RAS (NCI-H358 cells; 50 µM 1 combined with 20 µM ARS-1620): 30%
- change in GTP-KRAS (NCI-H358 cells; 50 µM 1 for 1 h): no change
- steady-state RAS GTP levels (NCI-H358 cells): does not change
- formation of GTP-loaded KRAS / RAS GTP levels (NCI-H358 cells): dose-dependent inhibition
- IC50 (GDP-KRASG12C::SOS1): 450 nM
- IC50 (GTP-KRASG12C::CRAF): 180 nM
- IC50 (GTP-KRASG12C::SOS1): 360 nM
- inhibition of GDP-dependent interaction with G12D instead of G12C (GDP-KRASG12D::SOS1): maintained the inhibitory function
- IC50 (GDP-KRASG12D::SOS1): 260 nM
- IC50 (GTP-KRASG12C::PI3Kα): 100 nM
